Results reported in ChEMBL document CHEMBL4152347 (J Med Chem, 2018).
Values after ≈ are worked out from the molar mass of the structure shown.

Key:
[1] = Oral bioavailability in Sprague-Dawley rat at 5 mg/kg treated with 10 mg/kg elacridar immediately after compound dosing; type: ADME, organism-based; conditions: in vivo, with elacridar 10 mg/kg
[2] = AUC (0 to infinity) in beagle dog at 5 mg/kg, po administered via gavage as microsuspension pre-treated with 6 ug/kg, im pentagastrin 15 to 30 mins before compound dosing; type: ADME, organism-based, Canis lupus familiaris; conditions: in vivo
[3] = Protein binding in human serum at 53 nM after 1 hr by ultracentrifugation assay; type: ADME, cell-free; conditions: read-out: PB (converted)
[4] = system: Salmonella typhimurium; test: Mutagenicity in Salmonella typhimurium TA98 in absence of Aroclor 1254-induced rat liver S9 fraction at up to 1600 ug/plate; type: toxicity, organism-based; conditions: salmonella enterica subsp. enterica serovar typhimurium
[5] = Tmax in beagle dog at 5 mg/kg, po administered via gavage as solution; type: ADME, organism-based, Canis lupus familiaris; conditions: in vivo
[6] = Half life in dog hepatocytes at 0.5 uM after 1 hr in presence of NADPH by LC-MS/MS analysis; type: ADME, cell-based, Canis lupus familiaris, Hepatocyte
[7] = Stability of the compound in human plasma at 1 uM after 2 hrs by LC-MS/MS analysis; type: ADME, cell-free
[8] = Protein binding in dog serum at 53 nM after 1 hr by ultracentrifugation assay; type: ADME, cell-free, Canis lupus familiaris; conditions: read-out: PB (converted)
[9] = in vitro; conditions: human, liver microsomes
Description: Half life in human liver microsomes at 0.5 uM after 1 hr in presence of NADPH by LC-MS/MS analysis

[10] = Total plasma clearance in CD1 mouse at 1 mg/kg, iv; type: ADME, organism-based
[11] = Protein binding in mouse serum at 53 nM after 1 hr by ultracentrifugation assay; type: ADME, cell-free; conditions: read-out: PB (converted)
[12] = Tmax in Sprague-Dawley rat at 5 mg/kg, po treated with 10 mg/kg elacridar immediately after compound dosing; type: ADME, organism-based; conditions: in vivo, with elacridar 10 mg/kg
[13] = Tmax in MDR1 a/b knockout mouse at 5 mg/kg, po administered via gavage; type: ADME, organism-based; conditions: in vivo
[14] = system: Canis familiaris; test: AUC (0 to infinity) in beagle dog at 1 mg/kg, iv; type: ADME, organism-based, Canis lupus familiaris; design: dose 1 mg/kg, route intravenous, time infinity; conditions: in vivo
[15] = AUC (0 to infinity) in beagle dog at 5 mg/kg, po administered via gavage as solution; type: ADME, organism-based, Canis lupus familiaris; design: dose 5 mg/kg, route oral, time infinity; conditions: in vivo
[16] = Half life in cynomolgus monkey liver microsomes at 0.5 uM after 1 hr in presence of NADPH by LC-MS/MS analysis; type: ADME, Macaca fascicularis, microsome
[17] = Volume of distribution at steady state in Sprague-Dawley rat at 1 mg/kg, iv; type: ADME, organism-based; conditions: in vivo, read-out: Vdss
[18] = in vitro; conditions: human, MT2 cells
Description: Cytotoxicity against human MT2 cells assessed as reduction in cell viability

[19] = AUC (0 to infinity) in beagle dog at 5 mg/kg, po administered via gavage as microsuspension pre-treated with 40 mg famotidine in capsule form 1 hr before compound dosing; type: ADME, organism-based, Canis lupus familiaris; design: dose 5 mg/kg, time infinity, route oral; conditions: in vivo
[20] = Oral bioavailability in CD1 mouse at 5 mg/kg; type: ADME, organism-based; conditions: in vivo
[21] = AUC (0 to infinity) in MDR1 a/b knockout mouse at 5 mg/kg, po administered via gavage; type: ADME, organism-based; design: dose 5 mg/kg, time infinity, route oral; conditions: in vivo
[22] = Tmax in Sprague-Dawley rat at 5 mg/kg, po; type: ADME, organism-based; conditions: in vivo
[23] = Volume of distribution at steady state in CD1 mouse at 1 mg/kg, iv; type: ADME, organism-based; conditions: in vivo, read-out: Vdss
[24] = physchem; conditions: aqueous
Description: Aqueous solubility of the compound

[25] = in vitro; conditions: rat, liver microsomes
Description: Half life in rat liver microsomes at 0.5 uM after 1 hr in presence of NADPH by LC-MS/MS analysis

[26] = Cmax in Sprague-Dawley rat at 5 mg/kg, po; type: ADME, organism-based; design: dose 5 mg/kg, route oral; conditions: in vivo
[27] = Oral bioavailability in beagle dog at 5 mg/kg administered via gavage as microsuspension pre-treated with 6 ug/kg, im pentagastrin 15 to 30 mins before compound dosing; type: ADME, organism-based, Canis lupus familiaris; conditions: in vivo
[28] = Solubility of compound in fed state simulated intestinal fluid at pH 5; type: physicochemical
[29] = Cmax in MDR1 a/b knockout mouse at 5 mg/kg, po administered via gavage; type: ADME, organism-based; design: dose 5 mg/kg, route oral; conditions: in vivo
[30] = Cmax in cynomolgus monkey at 5 mg/kg, po administered via gavage; type: ADME, organism-based, Macaca fascicularis; design: dose 5 mg/kg, route oral; conditions: in vivo
[31] = Oral bioavailability in beagle dog at 5 mg/kg administered as solution; type: ADME, organism-based, Canis lupus familiaris; conditions: in vivo
[32] = Stability of the compound in human liver microsomes in presence of […]; type: ADME, microsome
[33] = AUC (0 to infinity) in Sprague-Dawley rat at 1 mg/kg, iv; type: ADME, organism-based; design: dose 1 mg/kg, time infinity, route intravenous; conditions: in vivo
[34] = AUC (0 to infinity) in Sprague-Dawley rat at 5 mg/kg, po treated with 10 mg/kg elacridar immediately after compound dosing; type: ADME, organism-based; design: dose 5 mg/kg, route oral, time infinity; conditions: in vivo, with elacridar 10 mg/kg
[35] = Cmax in beagle dog at 5 mg/kg, po administered via gavage as microsuspension along with high fat meal; type: ADME, organism-based, Canis lupus familiaris; design: dose 5 mg/kg, route oral; conditions: in vivo
[36] = system: Canis familiaris; test: Oral bioavailability in beagle dog at 5 mg/kg administered via gavage as microsuspension along with high fat meal; type: ADME, organism-based, Canis lupus familiaris; conditions: in vivo

C=C(C)[C@@H]1CC[C@]2(NCCN3CCS(=O)(=O)CC3)CC[C@]3(C)[C@H](CC[C@@H]4[C@@]5(C)CC=C(c6ccc(C(=O)O)cc6)C(C)(C)[C@@H]5CC[C@]43C)[C@@H]12 [BMS-955176]
bioavailability [1]: 63%
AUC(0-inf) [2]: 276 µM·h
fraction unbound at 1 h, 0.053 µM [3]: 0.139
Activity [4]: Non-Toxic
Tmax [5]: 12.7 h
half-life at 0.5 µM [6]: > 2 h
Stability [7]: Stable
fraction unbound at 1 h, 0.053 µM [8]: 0.154
half-life at 1 h, 0.5 µM [9]: > 2 h
clearance [10]: 1.1 mL/min/kg
fraction unbound at 1 h, 0.053 µM [11]: 0.106
Tmax [12]: 7.3 h
Tmax [13]: 3 h
AUC [14]: 31.7 µM·h
AUC(0-inf) [15]: 29.4 µM·h
half-life at 0.5 µM [16]: 0.183 h
Vd [17]: 1.1 L/kg
CC50 [18]: 9.2 µM
AUC(0-inf) [19]: 236 µM·h
bioavailability [20]: 26.8%
AUC(0-inf) [21]: 65.5 µM·h
Tmax [22]: 6 h
Vd [23]: 0.82 L/kg
solubility [24]: < 1 µg/mL
half-life at 1 h, 0.5 µM [25]: > 2 h
Cmax [26]: 1200 nM
bioavailability [27]: 26%
solubility [28]: 1020 µg/mL (≈ 1480 µM)
Cmax [29]: 4020 nM
Cmax [30]: 62 nM
bioavailability [31]: 9%
Stability [32]: Stable
AUC(0-inf) [33]: 11.1 µM·h
AUC(0-inf) [34]: 47.4 µM·h
Cmax [35]: 10200 nM
F [36]: 67%
